This assay relates to Bacillus polymyxa BN-109. As to the kind of experiment: Sensitivity of producing strain BN-109 towards antibiotics (disc method). Type of assay: cell-based. The source says:
14. Sensitivity towards antibiotics (disc method):
Take `O=C(Cc1cccs1)N[C@@H]1C(=O)N2C(C(=O)[O-])=C(C[n+]3ccccc3)CS[C@H]12` [cephalolidin]: the Sensitivity towards antibiotics result is reported as “Sensitive”.

As for `[H]/N=C(/N)N[C@H]1[C@H](O)[C@@H](O)[C@H](O[C@@H]2O[C@@H](C)[C@](O)(C=O)[C@H]2O[C@@H]2O[C@@H](CO)[C@H](O)[C@@H](O)[C@@H]2NC)[C@@H](N/C(N)=N\[H])[C@@H]1O` [Streptomycin], the Sensitivity towards antibiotics entry is listed as “Sensitive”.

With Polymyxin B, the Sensitivity towards antibiotics result is listed as “Resistant”.

Consider `CC[C@H]1OC(=O)[C@H](C)[C@@H](O[C@H]2C[C@@](C)(OC)[C@@H](O)[C@H](C)O2)[C@H](C)[C@@H](O[C@@H]2O[C@H](C)C[C@H](N(C)C)[C@H]2O)[C@](C)(O)C[C@@H](C)C(=O)[C@H](C)[C@@H](O)[C@]1(C)O` [erythromycin], for which the Sensitivity towards antibiotics result is on record as “Sensitive”.

Consider `CC1(C)S[C@@H]2[C@H](NC(=O)Cc3ccccc3)C(=O)N2[C@H]1C(=O)O` [penicillin], for which the Sensitivity towards antibiotics entry was “Sensitive”.

For the compound `NC[C@H]1O[C@H](O[C@H]2[C@H](O)[C@@H](O[C@H]3O[C@H](CO)[C@@H](O)[C@H](N)[C@H]3O)[C@H](N)C[C@@H]2N)[C@H](O)[C@@H](O)[C@@H]1O` [kanamycin], the Sensitivity towards antibiotics entry is reported as “Sensitive”.

For `CCn1cc(C(=O)O)c(=O)c2ccc(C)nc21` [nalidixic acid], the Sensitivity towards antibiotics entry is reported as “Sensitive”.

Take `O=C(N[C@H](CO)[C@H](O)c1ccc([N+](=O)[O-])cc1)C(Cl)Cl` [chloramphenical]: the Sensitivity towards antibiotics result is on record as “Sensitive”.

As to `NC[C@H]1O[C@H](O[C@H]2[C@H](O[C@@H]3O[C@H](CO)[C@@H](O)[C@H]3O)[C@@H](O)[C@H](N)C[C@@H]2N)[C@H](N)[C@@H](O)[C@@H]1O` [vistamycin], the Sensitivity towards antibiotics result is “Sensitive”.

`CN(C)C1C(=O)C(C(N)=O)=C(O)C2(O)C(=O)C3=C(O)c4c(O)cccc4C(C)(O)C3CC12` (centres unmarked) [tetracyclin]: the Sensitivity towards antibiotics entry is recorded as “Sensitive”.

In the case of colistin, the Sensitivity towards antibiotics entry is given as “Resistant”.

For the origin of these results see patent US3940479A (Meiji Seika Kaisha, Ltd., priority 1974, dated 1976).
